Experiment [1] has as its system Botrytis cinerea. As to the kind of experiment: Antifungal activity against Botryotinia fuckeliana assessed as inhibition of mycelium growth at 100 ug/ml […]. In kind it is functional. The following applies: 168 h, read-out: GI.
Experiment [2] relates to Fusarium solani. In words: Antifungal activity against Fusarium solani assessed as inhibition of mycelium growth at 100 ug/ml […]. It is filed as functional. The conditions noted are these: 168 h, read-out: GI.
The subject of experiment [3] is Alternaria solani. In words: Antifungal activity against Alternaria solani assessed as inhibition of mycelium growth at 100 ug/ml […]. It is filed as functional. The conditions noted are these: 168 h, read-out: GI.
The subject of experiment [4] is Cytospora. In words: Antifungal activity against Cytospora sp. assessed as inhibition of mycelium growth at 100 ug/ml after 3 to 4 days. The following applies: 72 to 96 h, read-out: GI.
For experiment [5], the system named is Colletotrichum gloeosporioides. As to the kind of experiment: Antifungal activity against Colletotrichum gloeosporioides assessed as inhibition of mycelium growth at 100 ug/ml after 3 to 4 days. The conditions noted are these: 72 to 96 h, read-out: GI.
In experiment [6] the test system is Botrytis cinerea. In words: Antifungal activity against Botryotinia fuckeliana assessed as inhibition of mycelium growth after 1 week. It is filed as functional, organism-based. The following applies: 168 h.
Experiment [7] concerns Alternaria solani. In words: Antifungal activity against Alternaria solani assessed as inhibition of mycelium growth after 1 week. It is filed as functional, organism-based.
Experiment [8] relates to Cytospora. As to the kind of experiment: Antifungal activity against Cytospora sp. assessed as […]. In kind it is functional, organism-based.
The subject of experiment [9] is Colletotrichum gloeosporioides. In words: Antifungal activity against Colletotrichum gloeosporioides assessed as inhibition of mycelium growth […]. In kind it is functional, organism-based. The following applies: Colletotrichum gloeosporioides; read-out: IC50.
Experiment [10] relates to Fusarium solani. In words: Antifungal activity against Fusarium solani assessed as inhibition of mycelium growth after 1 week. In kind it is functional, organism-based.
[11] abbreviates: Alternaria solani, 168 h, read-out: IC50.
Setting [12] is: Cytospora, 168 h, read-out: IC50.
Where [13] appears, read: Fusarium solani, 168 h, read-out: IC50.

What is called IC50 is the concentration needed to halve the response being measured.

Values after ≈ are worked out from the molar mass of the structure shown.

As for `CNc1ccccc1N(C)C(=O)CCl`, the inhibition of growth at 100 µg/mL with Botrytis cinerea [1] is 64.4%; with Fusarium solani [2], 30.1%; with Alternaria solani [3], 25.3%; in the experiment on Cytospora [4] it was below 5%; in experiment [5], 41.3%.

For the molecule `Cn1c(COc2ccccc2)nc2ccccc21`, the inhibition of growth at 100 µg/mL in the experiment on Botrytis cinerea [1] turned out to be 29.8%; in the experiment on Fusarium solani [2], 84.5%; in the experiment with Alternaria solani [3] it was 75.4%; in the experiment with Cytospora [4], 84.2%; in experiment [5], 87.3%. The IC50 in the experiment with Botrytis cinerea [6] is above 150 µg/mL; in the experiment on Alternaria solani [7] (setting [11]) it was 27.6 µg/mL (≈ 116 µM); in the experiment on Cytospora [8] (setting [12]), 50 µg/mL (≈ 210 µM); in experiment [9], 20.8 µg/mL (≈ 87.1 µM); in the experiment on Fusarium solani [10] (setting [13]), 18.6 µg/mL (≈ 78.1 µM).

On to `CCCOC(=O)c1ccc(OCc2nc3ccccc3n2C)cc1`, for which the inhibition of growth at 100 µg/mL with Botrytis cinerea [1] is below 5%; with Fusarium solani [2], 42.2%; with Alternaria solani [3], 63.6%; in the experiment with Cytospora [4], 48.3%; in experiment [5] it was 20.6%.

Consider `C=CCc1ccc(OCc2nc3cc([N+](=O)[O-])ccc3n2C)c(OC)c1`, for which the inhibition of growth at 100 µg/mL in the experiment with Botrytis cinerea [1] is 24%; with Fusarium solani [2], 25.4%; with Alternaria solani [3], 35.1%; in the experiment with Cytospora [4] it was below 5%; in experiment [5], below 5%.

For `C=CCc1ccc(OCc2nc3ccccc3n2C)c(OC)c1`, the inhibition of growth at 100 µg/mL is 47.4% in the experiment on Botrytis cinerea [1]; 60.4% with Fusarium solani [2]; 40.1% in the experiment with Alternaria solani [3]; 49.7% in the experiment on Cytospora [4]; 38.1% in experiment [5].

For the molecule `CC(=O)c1ccccc1OCc1nc2cc([N+](=O)[O-])ccc2n1C`, the inhibition of growth at 100 µg/mL in the experiment on Botrytis cinerea [1] was below 5%; in the experiment with Fusarium solani [2], below 5%; with Alternaria solani [3], 13.8%; in the experiment with Cytospora [4], below 5%; in [5], below 5%.

For the molecule `CCCOC(=O)c1ccc(OCc2nc3cc([N+](=O)[O-])ccc3n2C)cc1`, the inhibition of growth at 100 µg/mL with Botrytis cinerea [1] was below 5%; with Fusarium solani [2], 19.4%; with Alternaria solani [3], 8.05%; in the experiment with Cytospora [4], 10.9%; in experiment [5], below 5%.

With `COc1cc(C(C)=O)ccc1OCc1nc2ccccc2n1C`, the inhibition of growth at 100 µg/mL with Botrytis cinerea [1] was 59.1%; with Fusarium solani [2], below 5%; in the experiment on Alternaria solani [3] it was 17.9%; with Cytospora [4], 26%; in experiment [5] it was 14.3%.

On to `Cn1c(COc2ccc(C=O)cc2)nc2cc([N+](=O)[O-])ccc21`, for which the inhibition of growth at 100 µg/mL with Botrytis cinerea [1] was below 5%; with Fusarium solani [2], below 5%; with Alternaria solani [3], 16.3%; in the experiment on Cytospora [4], 9.48%; in [5], below 5%.

Take `COC(=O)c1ccc(OCc2nc3cc([N+](=O)[O-])ccc3n2C)cc1`: the inhibition of growth at 100 µg/mL in the experiment with Botrytis cinerea [1] is 32.2%; in the experiment with Fusarium solani [2], 18%; in the experiment with Alternaria solani [3] it was below 5%; in the experiment on Cytospora [4], below 5%; in [5] it was 59.1%.

With `COc1cc(C=O)ccc1OCc1nc2ccccc2n1C`, the inhibition of growth at 100 µg/mL was 15.2% in the experiment with Botrytis cinerea [1]; 24.7% with Fusarium solani [2]; 40.9% with Alternaria solani [3]; 10.2% with Cytospora [4]; below 5% in experiment [5].

Turning to `CS(=O)(=O)n1c(CCl)nc2ccccc21`, the inhibition of growth at 100 µg/mL in the experiment with Botrytis cinerea [1] is 79.9%; with Fusarium solani [2], 79.2%; in the experiment on Alternaria solani [3], 68%; in the experiment on Cytospora [4] it was 100%; in experiment [5], 100%. The IC50 in the experiment with Botrytis cinerea [6] is 57.7 µg/mL (≈ 236 µM); in the experiment on Alternaria solani [7] (setting [11]), above 100 µg/mL; with Cytospora [8] (setting [12]), 31 µg/mL (≈ 127 µM); in experiment [9] it was 11.4 µg/mL (≈ 46.5 µM); in the experiment with Fusarium solani [10] (setting [13]) it was 40.1 µg/mL (≈ 164 µM).

With `Cn1c(COc2ccc(F)cc2)nc2ccccc21`, the inhibition of growth at 100 µg/mL was 47.4% in the experiment on Botrytis cinerea [1]; 83.9% in the experiment on Fusarium solani [2]; 85.2% in the experiment on Alternaria solani [3]; 80.6% with Cytospora [4]; 62.7% in experiment [5]. Also, the IC50 in the experiment on Botrytis cinerea [6] was above 120 µg/mL; with Alternaria solani [7] (setting [11]), 69.3 µg/mL (≈ 271 µM); in the experiment with Cytospora [8] (setting [12]), 58.2 µg/mL (≈ 227 µM); in experiment [9], above 100 µg/mL; in the experiment on Fusarium solani [10] (setting [13]) it was 31.5 µg/mL (≈ 123 µM).

In the case of `CC(=O)c1ccc(OCc2nc3ccccc3n2C)cc1`, the inhibition of growth at 100 µg/mL was 65.4% in the experiment on Botrytis cinerea [1]; 81.8% with Fusarium solani [2]; 55.7% in the experiment with Alternaria solani [3]; 87.1% with Cytospora [4]; 38.1% in experiment [5]. Besides, the IC50 in the experiment with Botrytis cinerea [6] is 89.6 µg/mL (≈ 320 µM); in the experiment on Alternaria solani [7] (setting [11]), above 100 µg/mL; in the experiment on Cytospora [8] (setting [12]), 50.7 µg/mL (≈ 181 µM); in [9], above 120 µg/mL; with Fusarium solani [10] (setting [13]), 39 µg/mL (≈ 139 µM).

As to `O=S(=O)(c1ccc(Cl)cc1)n1c(CCl)nc2ccccc21`, the inhibition of growth at 100 µg/mL stood at 57.3% in the experiment on Botrytis cinerea [1]; 28.1% in the experiment with Fusarium solani [2]; 31.9% in the experiment on Alternaria solani [3]; 27.4% in the experiment with Cytospora [4]; 74.6% in experiment [5]. The IC50 with Botrytis cinerea [6] was above 100 µg/mL; in the experiment with Alternaria solani [7], “Not Active”; with Cytospora [8], “Not Active”; in experiment [9], 22.3 µg/mL (≈ 65.3 µM); in the experiment with Fusarium solani [10] it was “Not Active”.

For `Cn1c(COc2ccccc2)nc2cc([N+](=O)[O-])ccc21`, the inhibition of growth at 100 µg/mL was 7.89% in the experiment on Botrytis cinerea [1]; 5.91% in the experiment with Fusarium solani [2]; 10.5% with Alternaria solani [3]; below 5% with Cytospora [4]; below 5% in experiment [5].

`Cn1c(COc2cccc3ccccc23)nc2cc([N+](=O)[O-])ccc21`: the inhibition of growth at 100 µg/mL in the experiment on Botrytis cinerea [1] was below 5%; in the experiment with Fusarium solani [2], below 5%; in the experiment on Alternaria solani [3], 19.5%; in the experiment on Cytospora [4], below 5%; in [5], below 5%.

`CC(=O)c1cccc(OCc2nc3cc([N+](=O)[O-])ccc3n2C)c1`: the inhibition of growth at 100 µg/mL in the experiment on Botrytis cinerea [1] was below 5%; in the experiment on Fusarium solani [2] it was below 5%; in the experiment on Alternaria solani [3], below 5%; with Cytospora [4], 51.9%; in experiment [5] it was below 5%.

As to `COC(=O)c1ccc(OCc2nc3ccccc3n2C)cc1`, the inhibition of growth at 100 µg/mL with Botrytis cinerea [1] was 6.43%; with Fusarium solani [2], 48.2%; in the experiment on Alternaria solani [3], 64.6%; in the experiment on Cytospora [4], 31%; in [5], below 5%.

`Cn1c(COc2ccc(C=O)cc2)nc2ccccc21`: the inhibition of growth at 100 µg/mL was below 5% in the experiment on Botrytis cinerea [1]; 12% with Fusarium solani [2]; 27.8% in the experiment on Alternaria solani [3]; 21% in the experiment with Cytospora [4]; 49.2% in experiment [5].

`Cn1c(COc2cccc3ccccc23)nc2ccccc21`: the inhibition of growth at 100 µg/mL was below 5% in the experiment with Botrytis cinerea [1]; 53% in the experiment with Fusarium solani [2]; 50.7% in the experiment with Alternaria solani [3]; 62.6% in the experiment with Cytospora [4]; 22.2% in experiment [5].

As to `Cn1c(COc2ccc(C(C)(C)C)cc2)nc2ccccc21`, the inhibition of growth at 100 µg/mL with Botrytis cinerea [1] was 64.8%; in the experiment on Fusarium solani [2], below 5%; in the experiment with Alternaria solani [3], 23.6%; in the experiment with Cytospora [4], 28.2%; in experiment [5], 63.8%.

For `Cn1c(COc2ccc([N+](=O)[O-])cc2)nc2ccccc21`, the inhibition of growth at 100 µg/mL is below 5% in the experiment on Botrytis cinerea [1]; 8.6% in the experiment on Fusarium solani [2]; 11.3% in the experiment with Alternaria solani [3]; 19.5% in the experiment with Cytospora [4]; 41.3% in experiment [5].

For `Cn1c(COc2ccc(C(C)(C)C)cc2)nc2cc([N+](=O)[O-])ccc21`, the inhibition of growth at 100 µg/mL in the experiment on Botrytis cinerea [1] is 57.3%; in the experiment with Fusarium solani [2], below 5%; in the experiment on Alternaria solani [3], 30.2%; in the experiment on Cytospora [4] it was below 5%; in [5], 30.2%.

In the case of `CCOC(=O)c1ccc(OCc2nc3cc([N+](=O)[O-])ccc3n2C)cc1`, the inhibition of growth at 100 µg/mL in the experiment with Botrytis cinerea [1] was below 5%; in the experiment with Fusarium solani [2], below 5%; with Alternaria solani [3] it was 11.3%; with Cytospora [4], below 5%; in experiment [5], below 5%.

Consider `CC(=O)c1ccc(OCc2nc3cc([N+](=O)[O-])ccc3n2C)cc1`, for which the inhibition of growth at 100 µg/mL in the experiment on Botrytis cinerea [1] is 38.6%; in the experiment on Fusarium solani [2], below 5%; with Alternaria solani [3] it was 33.5%; in the experiment with Cytospora [4], below 5%; in [5], below 5%.

Regarding `Cn1c(COc2ccc(F)cc2)nc2cc([N+](=O)[O-])ccc21`, the inhibition of growth at 100 µg/mL with Botrytis cinerea [1] was below 5%; in the experiment on Fusarium solani [2], 9.95%; in the experiment on Alternaria solani [3], below 5%; in the experiment on Cytospora [4], 22.4%; in experiment [5], below 5%.
